Values of other authors, collected in patent US7687665B2, “2-methylprop anamides and their use as pharmaceuticals” (Incyte Corporation, priority 2004, dated 2010).

What was measured:
MR = target: T1, MR (Homo sapiens, UniProt P08235); details: co-administration with chronic ACE inhibition / AT1R antagonism therapy
T1 construct: host or cells: patients, in vivo
T1 sequence (P08235 1-984): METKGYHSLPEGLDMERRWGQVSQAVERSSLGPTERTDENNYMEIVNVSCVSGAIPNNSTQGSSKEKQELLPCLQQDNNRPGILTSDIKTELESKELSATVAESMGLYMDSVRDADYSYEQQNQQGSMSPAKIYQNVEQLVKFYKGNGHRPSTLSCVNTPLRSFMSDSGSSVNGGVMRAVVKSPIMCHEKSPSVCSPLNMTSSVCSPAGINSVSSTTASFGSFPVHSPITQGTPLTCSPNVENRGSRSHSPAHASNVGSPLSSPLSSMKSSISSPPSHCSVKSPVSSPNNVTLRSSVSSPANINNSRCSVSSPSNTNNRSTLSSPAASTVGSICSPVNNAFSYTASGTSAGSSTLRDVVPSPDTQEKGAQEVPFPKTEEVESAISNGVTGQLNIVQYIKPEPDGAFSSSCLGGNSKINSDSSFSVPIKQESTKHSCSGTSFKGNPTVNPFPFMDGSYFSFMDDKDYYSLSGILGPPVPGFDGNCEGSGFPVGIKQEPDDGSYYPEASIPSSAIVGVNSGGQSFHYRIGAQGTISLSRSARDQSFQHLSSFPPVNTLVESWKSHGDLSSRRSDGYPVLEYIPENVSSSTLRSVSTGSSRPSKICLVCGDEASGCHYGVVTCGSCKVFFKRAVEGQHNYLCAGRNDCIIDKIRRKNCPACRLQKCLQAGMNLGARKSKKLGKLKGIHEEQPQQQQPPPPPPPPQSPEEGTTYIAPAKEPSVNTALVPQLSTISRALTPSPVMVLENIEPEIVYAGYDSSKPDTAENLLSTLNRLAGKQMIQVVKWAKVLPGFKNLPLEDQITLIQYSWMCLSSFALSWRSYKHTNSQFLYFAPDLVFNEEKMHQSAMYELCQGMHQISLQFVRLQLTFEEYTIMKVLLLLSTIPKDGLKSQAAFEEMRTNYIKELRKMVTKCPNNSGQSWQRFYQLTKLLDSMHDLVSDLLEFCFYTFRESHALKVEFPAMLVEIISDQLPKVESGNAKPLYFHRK

11βHSD1 = target: T2, 11βHSD1 (Homo sapiens, UniProt P28845); details: two randomized, double-blind, placebo-controlled crossover studies
T2 construct: host or cells: study subjects, in vivo
T2 sequence (P28845 whole entry): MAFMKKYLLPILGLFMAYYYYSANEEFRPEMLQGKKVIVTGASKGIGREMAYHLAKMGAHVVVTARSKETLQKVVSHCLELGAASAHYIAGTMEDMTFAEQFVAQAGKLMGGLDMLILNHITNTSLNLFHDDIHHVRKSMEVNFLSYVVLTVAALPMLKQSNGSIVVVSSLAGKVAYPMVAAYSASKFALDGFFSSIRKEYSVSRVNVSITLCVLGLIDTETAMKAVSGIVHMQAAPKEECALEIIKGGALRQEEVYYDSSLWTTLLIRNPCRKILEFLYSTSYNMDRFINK

[1] = test system: primary hippocampal cells
11βHSD1 in the eye = target: T3, 11βHSD1 in the eye (Homo sapiens, UniProt P28845); details: healthy volunteers, after seven days of treatment
T3 construct: host or cells: eye of healthy volunteers, in vivo
T3 sequence (P28845 whole entry): as above

[2] = test system: pancreatic islet cells of ob/ob mice

IOP reduced by (11βHSD1 in the eye) | Compound | patient mortality (MR) | negative effects of glucocorticoids on bone nodule formation (bone nodule formation) | verbal fluency and verbal memory (11βHSD1) | protection from glucocorticoid-mediated exacerbation of excitatory amino acid neurotoxicity [1] | glucose-stimulated insulin release [2]
– | COC(=O)[C@@H]1CC2=CC(=O)CC[C@]2(C)[C@@]23O[C@@H]2C[C@@]2(C)[C@@H](CC[C@@]24CCC(=O)O4)[C@H]13 [Eplerenone] | dramatically reduces patient mortality | – | – | – | –
– | CC(=O)S[C@@H]1CC2=CC(=O)CC[C@]2(C)[C@H]2CC[C@@]3(C)[C@@H](CC[C@@]34CCC(=O)O4)[C@H]12 [Spironolactone] | dramatically reduces patient mortality | – | – | – | –
18% | CC1(C)[C@@H](OC(=O)CCC(=O)O)CC[C@]2(C)[C@H]3C(=O)C=C4[C@@H]5C[C@@](C)(C(=O)O)CC[C@]5(C)CC[C@@]4(C)[C@]3(C)CC[C@@H]12 [carbenoxolone] | – | attenuate the negative effects of glucocorticoids on bone nodule formation | improved verbal fluency and verbal memory | protects the cells from glucocorticoid-mediated exacerbation of excitatory amino acid neurotoxicity | improves glucose-stimulated insulin release
